Reference: article PMC12669040, “Tumour-specific STING agonist synthesis via a two-component prodrug system” (Nature Chemistry, 2025)
“And” between values parts separate entries of the source, which are not always exact repeats. Identical values can stand only once.

Key:
[1] = Colorimetric alkylation rate constant assay with thiol N1; assay type: physicochemical; details: for remaining [A]: N1 from calibration curve (N1 in uM); for remaining [A] / remaining [B]: in µM
[2] = Colorimetric alkylation rate constant assay with TNB^2− as non-specific thiol; assay type: physicochemical; design: second-order: unit not given here; details: for remaining [B]: in µM
[3] = Time 2891 sec, [B]0 = 250, Replicates 1-3
[4] = Time 3071 sec, [B]0 = 250, Replicates 1-3
[5] = Time 3252 sec, [B]0 = 250, Replicates 1-3
[6] = Time 3433 sec, [B]0 = 250, Replicates 1-3
[7] = Time 3613 sec, [B]0 = 250, Replicates 1-3

C=CS(=O)(=O)Nc1cc2cc(C(=O)CCC(=O)O)sc2cc1OC [Compound E1]
remaining [A] ([1]; Replicate 1, time 576 sec): 47.8044
remaining [B] ([1]; Replicate 1, time 576 sec, [B]0 = 250): 193.684
second-order ([1]; Replicate 1, time 576 sec, second-order plot value): 0.003586
remaining [A] ([1]; Replicate 1, time 606 sec): 46.4649
remaining [B] ([1]; Replicate 1, time 606 sec, [B]0 = 250): 192.345
second-order ([1]; Replicate 1, time 606 sec, second-order plot value): 0.003734
remaining [A] ([1]; Replicate 2, time 576 sec): 30.5226
remaining [B] ([1]; Replicate 2, time 576 sec, [B]0=250): 177.381
second-order ([1]; Replicate 2, time 576 sec, second-order plot value): 0.005955
remaining [A] ([1]; Replicate 2, time 606 sec): 29.3038
remaining [B] ([1]; Replicate 2, time 606 sec, [B]0=250): 176.162
second-order ([1]; Replicate 2, time 606 sec, second-order plot value): 0.006185
remaining [A] ([1]; Replicate 3, time 576 sec): 37.5866
remaining [B] ([1]; Replicate 3, time 576 sec, [B]0=250): 183.039
second-order ([1]; Replicate 3, time 576 sec, second-order plot value): 0.00489
remaining [A] ([1]; Replicate 3, time 606 sec): 36.1527
remaining [B] ([1]; Replicate 3, time 606 sec, [B]0=250): 181.605
second-order ([1]; Replicate 3, time 606 sec, second-order plot value): 0.005103
remaining [B] ([1]; time 0 sec, [B]0 = 250, replicates 1-3): 244.616 and 236.007 and 232.398
second-order ([1]; time 0 sec, replicates 1-3): 0.000777 and 0.0002138 and 0.0005945
remaining [B] ([1]; time 30 sec, [B]0 = 250, replicates 1-3): 239.016 and 232.843 and 226.134
second-order ([1]; time 30 sec, replicates 1-3): 0.001109 and 0.0004543 and 0.0007469
remaining [B] ([1]; time 60 sec, [B]0 = 250, replicates 1-3): 231.981 and 229.623 and 220.975
second-order ([1]; time 60 sec, replicates 1-3): 0.00141 and 0.0007862 and 0.0009101
remaining [B] ([1]; time 91 sec, [B]0 = 250, replicates 1-3): 228.545 and 226.744 and 217.517
second-order ([1]; time 91 sec, replicates 1-3): 0.001628 and 0.0009622 and 0.001063
remaining [B] ([1]; time 121 sec, [B]0 = 250, replicates 1-3): 224.298 and 223.153 and 210.771
second-order ([1]; time 121 sec, replicates 1-3): 0.002097 and 0.001194 and 0.001265
remaining [B] ([1]; time 151 sec, [B]0 = 250, replicates 1-3): 215.18 and 221.016 and 204.96
second-order ([1]; time 151 sec, replicates 1-3): 0.002555 and 0.001754 and 0.001392
remaining [B] ([1]; time 182 sec, [B]0 = 250, replicates 1-3): 211.366 and 218.251 and 202.608
second-order ([1]; time 182 sec, replicates 1-3): 0.002758 and 0.002017 and 0.001562
remaining [B] ([1]; time 212 sec, [B]0 = 250, replicates 1-3): 208.552 and 215.829 and 199.773
second-order ([1]; time 212 sec, replicates 1-3): 0.003017 and 0.002225 and 0.001719
remaining [B] ([1]; time 242 sec, [B]0 = 250, replicates 1-3): 206.279 and 213.378 and 197.222
second-order ([1]; time 242 sec, replicates 1-3): 0.003266 and 0.002402 and 0.001885
remaining [B] ([1]; time 273 sec, [B]0 = 250, replicates 1-3): 203.276 and 211.041 and 194.671
second-order ([1]; time 273 sec, replicates 1-3): 0.003532 and 0.002649 and 0.002052
remaining [B] ([1]; time 303 sec, [B]0 = 250, replicates 1-3): 200.625 and 209.074 and 192.148
second-order ([1]; time 303 sec, replicates 1-3): 0.003812 and 0.002882 and 0.002197
remaining [B] ([1]; time 333 sec, [B]0 = 250, replicates 1-3): 197.649 and 207.193 and 190.108
second-order ([1]; time 333 sec, replicates 1-3): 0.004053 and 0.00316 and 0.002343
remaining [B] ([1]; time 364 sec, [B]0 = 250, replicates 1-3): 195.376 and 205.141 and 187.925
second-order ([1]; time 364 sec, replicates 1-3): 0.004327 and 0.003387 and 0.002508
remaining [B] ([1]; time 394 sec, [B]0 = 250, replicates 1-3): 193.158 and 203.203 and 186.139
second-order ([1]; time 394 sec, replicates 1-3): 0.004565 and 0.003621 and 0.002671
remaining [B] ([1]; time 424 sec, [B]0 = 250, replicates 1-3): 190.588 and 201.351 and 184.155
second-order ([1]; time 424 sec, replicates 1-3): 0.004845 and 0.003909 and 0.002833
remaining [B] ([1]; time 454 sec, [B]0 = 250, replicates 1-3): 188.694 and 199.783 and 182.426
second-order ([1]; time 454 sec, replicates 1-3): 0.005104 and 0.004135 and 0.002976
remaining [B] ([1]; time 485 sec, [B]0 = 250, replicates 1-3): 186.908 and 198.016 and 181.378
second-order ([1]; time 485 sec, replicates 1-3): 0.005268 and 0.00436 and 0.003143
remaining [B] ([1]; time 515 sec, [B]0 = 250, replicates 1-3): 185.014 and 196.591 and 179.79
second-order ([1]; time 515 sec, replicates 1-3): 0.005529 and 0.004611 and 0.003284
remaining [B] ([1]; time 545 sec, [B]0 = 250, replicates 1-3): 184.094 and 195.166 and 178.713
second-order ([1]; time 545 sec, replicates 1-3): 0.005715 and 0.004739 and 0.003429
remaining [B] ([2]; Replicate 1, 723 sec, [B]0 = 250): 246.895
remaining [B] ([2]; Replicate 1, 903 sec, [B]0 = 250): 246.517
remaining [B] ([2]; Replicate 1, 1084 sec, [B]0 = 250): 246.063
remaining [B] ([2]; Replicate 1, 1265 sec, [B]0 = 250): 245.71
remaining [B] ([2]; Replicate 1, 1445 sec, [B]0 = 250): 245.231
remaining [B] ([2]; Replicate 1, 1626 sec, [B]0 = 250): 244.866
remaining [B] ([2]; Replicate 1, 1806 sec, [B]0 = 250): 244.513
remaining [B] ([2]; Replicate 1, 1988 sec, [B]0 = 250): 243.833
remaining [B] ([2]; Replicate 1, 2168 sec, [B]0 = 250): 243.543
remaining [B] ([2]; Replicate 1, 2349 sec, [B]0 = 250): 242.9
remaining [B] ([2]; Replicate 1, 2530 sec, [B]0 = 250): 242.61
remaining [B] ([2]; Replicate 1, 2710 sec, [B]0 = 250): 242.169
remaining [B] ([2]; Replicate 2, 542 sec, [B]0=250): 248.022
remaining [B] ([2]; Replicate 2, 723 sec, [B]0=250): 247.165
remaining [B] ([2]; Replicate 2, 903 sec, [B]0=250): 246.925
remaining [B] ([2]; Replicate 2, 1084 sec, [B]0=250): 246.522
remaining [B] ([2]; Replicate 2, 1265 sec, [B]0=250): 246.258
remaining [B] ([2]; Replicate 2, 1445 sec, [B]0=250): 245.88
remaining [B] ([2]; Replicate 2, 1626 sec, [B]0=250): 245.262
remaining [B] ([2]; Replicate 2, 1806 sec, [B]0=250): 245.073
remaining [B] ([2]; Replicate 2, 1988 sec, [B]0=250): 244.304
remaining [B] ([2]; Replicate 2, 2168 sec, [B]0=250): 244.191
remaining [B] ([2]; Replicate 2, 2349 sec, [B]0=250): 243.649
remaining [B] ([2]; Replicate 2, 2530 sec, [B]0=250): 243.511
remaining [B] ([2]; Replicate 2, 2710 sec, [B]0=250): 243.032
remaining [B] ([2]; Replicate 3, 723 sec, [B]0=250): 248.495
remaining [B] ([2]; Replicate 3, 903 sec, [B]0=250): 247.89
remaining [B] ([2]; Replicate 3, 1084 sec, [B]0=250): 247.373
remaining [B] ([2]; Replicate 3, 1265 sec, [B]0=250): 246.731
remaining [B] ([2]; Replicate 3, 1445 sec, [B]0=250): 246.365
remaining [B] ([2]; Replicate 3, 1626 sec, [B]0=250): 245.899
remaining [B] ([2]; Replicate 3, 1806 sec, [B]0=250): 245.521
remaining [B] ([2]; Replicate 3, 1988 sec, [B]0=250): 245.08
remaining [B] ([2]; Replicate 3, 2168 sec, [B]0=250): 244.563
remaining [B] ([2]; Replicate 3, 2349 sec, [B]0=250): 244.16
remaining [B] ([2]; Replicate 3, 2530 sec, [B]0=250): 243.744
remaining [B] ([2]; Replicate 3, 2710 sec, [B]0=250): 243.505
second-order [2, 3]: 0.0003098 and 0.0002905 and 0.000349
remaining [B] [2, 3]: 243.089 and 241.779 and 242.654
second-order [2, 4]: 0.0003222 and 0.0003146 and 0.0003655
remaining [B] [2, 4]: 242.547 and 241.413 and 242.377
second-order [2, 5]: 0.0003374 and 0.0003303 and 0.0003793
remaining [B] [2, 5]: 242.194 and 241.111 and 242.036
second-order [2, 6]: 0.0003624 and 0.0003513 and 0.0004046
remaining [B] [2, 6]: 241.728 and 240.556 and 241.482
second-order [2, 7]: 0.0003733 and 0.000365 and 0.0004313
remaining [B] [2, 7]: 241.426
second-order ([2]; Time 3794 sec, [B]0 = 250, Replicates 1-3): 0.0003951 and 0.0003787 and 0.000436
second-order ([2]; Time 3974 sec, [B]0 = 250, Replicates 1-3): 0.0004043 and 0.0004098 and 0.0004713
second-order ([2]; Time 4155 sec, [B]0 = 250, Replicates 1-3): 0.0004287 and 0.0004139 and 0.0004754
second-order ([2]; Time 4336 sec, [B]0 = 250, Replicates 1-3): 0.0004451 and 0.0004267 and 0.000504
second-order ([2]; Time 4516 sec, [B]0 = 250, Replicates 1-3): 0.0004586 and 0.0004477 and 0.0005214
second-order ([2]; Time 4697 sec, [B]0 = 250, Replicates 1-3): 0.000471 and 0.0004671 and 0.0005431
second-order ([2]; Time 4878 sec, [B]0 = 250, Replicates 1-3): 0.000487 and 0.0004831 and 0.0005503
second-order ([2]; Time 5058 sec, [B]0 = 250, Replicates 1-3): 0.0005055 and 0.0005004 and 0.0005698
second-order ([2]; Time 5239 sec, [B]0 = 250, Replicates 1-3): 0.0005247 and 0.0005046 and 0.0005919
second-order ([2]; Time 5419 sec, [B]0 = 250, Replicates 1-3): 0.000547 and 0.000531 and 0.0006054
second-order ([2]; Time 5600 sec, [B]0 = 250, Replicates 1-3): 0.0005568 and 0.0005491 and 0.0006296
second-order ([2]; Time 5781 sec, [B]0 = 250, Replicates 1-3): 0.0005744 and 0.0005674 and 0.0006477
second-order ([2]; Time 5961 sec, [B]0 = 250, Replicates 1-3): 0.0005953 and 0.0005931 and 0.0006685
